BindingDB's records for doi:10.1016/j.bmcl.2006.03.030 (Gsk, 2006)

molecular target: Transient receptor potential cation channel subfamily V member 1 (Homo sapiens, UniProt Q8NER1); test: FLIPR (Fluorescence Imaging Plate Reader)-Based Ca2+ Assay; details: pH 7.2; 25 °C
Protocol: One day before the assay was performed, human TRPV1 expressed in 1321N1 astrocytoma cells were plated onto 96-well assay plates and grown until 2.5 h before the assay, and the cells were loaded with the Ca2+ reporter dye Fluo3-AM for 2 h at room temperature. After this, the cells were washed, and continuously being incubated for 30 min with medium containing test compounds at a range of different concentrations. The plates were then placed into a FLIPR to monitor fluorescence (excitation @ 488 nm and emission @540 nm) before and after the addition of capsaicin, antagonist potency was determined versus an EC80 concentration of capsaicin that was determined empirically on the day of the experiment.

Sequence of Transient receptor potential cation channel subfamily V member 1 (Q8NER1 whole entry): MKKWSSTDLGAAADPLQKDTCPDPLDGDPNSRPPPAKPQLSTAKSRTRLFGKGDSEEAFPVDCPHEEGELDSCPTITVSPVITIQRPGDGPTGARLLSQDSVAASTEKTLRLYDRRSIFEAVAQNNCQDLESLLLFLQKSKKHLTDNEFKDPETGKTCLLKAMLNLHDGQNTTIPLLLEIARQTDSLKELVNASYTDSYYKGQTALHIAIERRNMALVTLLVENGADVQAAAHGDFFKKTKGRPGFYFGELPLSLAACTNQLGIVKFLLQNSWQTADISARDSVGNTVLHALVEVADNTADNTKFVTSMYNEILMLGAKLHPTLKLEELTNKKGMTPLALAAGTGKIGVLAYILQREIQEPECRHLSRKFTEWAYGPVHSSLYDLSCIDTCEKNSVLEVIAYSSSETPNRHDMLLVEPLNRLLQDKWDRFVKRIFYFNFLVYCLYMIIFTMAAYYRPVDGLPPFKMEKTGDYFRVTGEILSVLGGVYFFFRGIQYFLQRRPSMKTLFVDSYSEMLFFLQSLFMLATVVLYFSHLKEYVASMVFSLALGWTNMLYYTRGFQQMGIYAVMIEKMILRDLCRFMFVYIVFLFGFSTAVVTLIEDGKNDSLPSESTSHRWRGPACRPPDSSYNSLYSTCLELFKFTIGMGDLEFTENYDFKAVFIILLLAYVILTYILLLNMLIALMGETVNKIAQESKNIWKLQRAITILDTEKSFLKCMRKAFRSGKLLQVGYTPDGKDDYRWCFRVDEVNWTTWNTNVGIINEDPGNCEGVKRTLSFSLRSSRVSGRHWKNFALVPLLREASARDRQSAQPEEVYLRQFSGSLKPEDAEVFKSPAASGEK

SMILES | EC50 [nM]
O=C(NCCN1CCc2ccccc21)Nc1ccccc1Br [1-(2-bromophenyl)-3-[2-(2,3-dihydro-1H-indol-1-yl)ethyl]urea] | 158
O=C(NCCN1CCc2c(F)cccc21)Nc1ccccc1Br [1-(2-bromophenyl)-3-[2-(4-fluoro-2,3-dihydro-1H-indol-1-yl)ethyl]urea] | 40
Cc1cccc2c1CCN2CCNC(=O)Nc1ccccc1Br [1-(2-bromophenyl)-3-[2-(4-methyl-2,3-dihydro-1H-indol-1-yl)ethyl]urea] | 40
O=C(NCCN1CCc2cc(F)ccc21)Nc1ccccc1Br [1-(2-bromophenyl)-3-[2-(5-fluoro-2,3-dihydro-1H-indol-1-yl)ethyl]urea] | 79
Cc1ccc2c(c1)CCN2CCNC(=O)Nc1ccccc1Br [1-(2-bromophenyl)-3-[2-(5-methyl-2,3-dihydro-1H-indol-1-yl)ethyl]urea] | 50
N#Cc1ccc(N2CC[C@@H](NC(=O)Nc3ccccc3Br)C2)nc1 [1-(2-bromophenyl)-3-[(3R)-1-(5-cyanopyridin-2-yl)pyrrolidin-3-yl]urea] | 200
O=C(Nc1ccccc1Br)N[C@@H]1CCN(c2ccccn2)C1 [1-(2-bromophenyl)-3-[(3R)-1-(pyridin-2-yl)pyrrolidin-3-yl]urea] | > 251
O=C(Nc1ccccc1Br)N[C@@H]1CCN(c2ncccc2C(F)(F)F)C1 [1-(2-bromophenyl)-3-[(3R)-1-[3-(trifluoromethyl)pyridin-2-yl]pyrrolidin-3-yl]urea] | 79
Cc1ccc2c(c1)CCCN2CCNC(=O)Nc1ccccc1Br [3-(2-bromophenyl)-1-[2-(6-methyl-1,2,3,4-tetrahydroquinolin-1-yl)ethyl]urea] | 40

The remaining lines, values ahead:

EC50 [nM] | SMILES
8 | O=C(Nc1ccccc1Br)N[C@@H]1CCN(c2ccc(F)c(F)c2)C1 [1-(2-bromophenyl)-3-[(3R)-1-(3,4-difluorophenyl)pyrrolidin-3-yl]urea]
5 | Cc1ccc(N2CC[C@@H](NC(=O)Nc3ccccc3Br)C2)cc1F [1-(2-bromophenyl)-3-[(3R)-1-(3-fluoro-4-methylphenyl)pyrrolidin-3-yl]urea]
16 | O=C(Nc1ccccc1Br)N[C@@H]1CCN(c2cccc(F)c2)C1 [1-(2-bromophenyl)-3-[(3R)-1-(3-fluorophenyl)pyrrolidin-3-yl]urea]
20 | Cc1cccc(N2CC[C@@H](NC(=O)Nc3ccccc3Br)C2)c1 [1-(2-bromophenyl)-3-[(3R)-1-(3-methylphenyl)pyrrolidin-3-yl]urea]
63 | O=C(Nc1ccccc1Br)N[C@@H]1CCN(c2ccc(Br)cn2)C1 [1-(2-bromophenyl)-3-[(3R)-1-(5-bromopyridin-2-yl)pyrrolidin-3-yl]urea]
50 | O=C(Nc1ccccc1Br)N[C@@H]1CCN(c2ccc(Cl)cn2)C1 [1-(2-bromophenyl)-3-[(3R)-1-(5-chloropyridin-2-yl)pyrrolidin-3-yl]urea]
> 200 | Cc1ccc(N2CC[C@@H](NC(=O)Nc3ccccc3Br)C2)nc1 [1-(2-bromophenyl)-3-[(3R)-1-(5-methylpyridin-2-yl)pyrrolidin-3-yl]urea]
126 | O=C(Nc1ccccc1Br)N[C@@H]1CCN(c2cc(C(F)(F)F)ccn2)C1 [1-(2-bromophenyl)-3-[(3R)-1-[4-(trifluoromethyl)pyridin-2-yl]pyrrolidin-3-yl]urea]
32 | O=C(Nc1ccccc1Br)N[C@@H]1CCN(c2ccc(C(F)(F)F)cn2)C1 [1-(2-bromophenyl)-3-[(3R)-1-[5-(trifluoromethyl)pyridin-2-yl]pyrrolidin-3-yl]urea]
63 | O=C(Nc1ccccc1Br)N[C@@H]1CCN(c2cccc(C(F)(F)F)n2)C1 [1-(2-bromophenyl)-3-[(3R)-1-[6-(trifluoromethyl)pyridin-2-yl]pyrrolidin-3-yl]urea]
> 158 | Cc1cccc(N2CC[C@H](NC(=O)Nc3ccccc3Br)C2)c1 [1-(2-bromophenyl)-3-[(3S)-1-(3-methylphenyl)pyrrolidin-3-yl]urea]
